Values after ≈ are worked out from the molar mass of the structure shown.
Tests used:
E. coli 25922 = experiment: Antibacterial activity, microbroth dilution MIC (Table 1); assay type: cell-based, Escherichia coli; settings: Escherichia coli; microbroth dilution; control Gram-negative E. coli 25922 strain; read-out: MIC, 25922
How it was run: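 In a microbroth dilution test, the minimum inhibitory concentration was defined as the lowest compound level preventing growth seen by eye, and was given in μg/mL.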

[1] = system: Escherichia coli (E. coli) BAS849; experiment: as above; assay type: cell-based; settings: microbroth dilution, super sensitive Gram-negative E. coli BAS849, read-out: MIC, BAS849
How it was run: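 Using broth microdilution, MIC endpoints (μg/mL) mark where visible growth no longer appears; the panel spans sensitive and control Gram-negative strains plus a Gram-positive strain.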

[2] = system: Staphylococcus aureus (S. aureus) 29213; experiment: as above; assay type: cell-based; settings: microbroth dilution, Gram-positive S. aureus 29213, read-out: MIC, 29213
How it was run: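 Broth microdilution against S. aureus 29213, E. coli 25922 and hypersensitive E. coli BAS849. MIC in μg/mL is the lowest drug concentration preventing macroscopically visible growth under test conditions.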

E. coli LZ3111 = experiment: Antibacterial activity, MIC, quinolone resistant strain (Table 2); assay type: cell-based; settings: Escherichia coli, LZ3111, read-out: MIC LZ3111
How it was run: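 Growth inhibition assessed by serial drug dilution in broth; endpoint was absence of macroscopically visible growth, reported as MIC, μg/mL.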

## CCc1cc(C(=O)O)c(=O)[nH]c1-c1ccc2c(c1)cc(CN1C[C@@H]3[C@H](C1)[C@H]3N(Cc1ccccc1)Cc1ccccc1)n2C [Cpd 143, 6-(2-(((1R,5S,6s)-6-(dibenzylamino)-3-azabicyclo[3.1.0]hexan-3-yl)methyl)-1-methyl-1H-indol-5-yl)-5-ethyl-2-oxo-1,2-dihydropyridine-3-carboxylic acid]
E. coli 25922
  MIC: 12.5 to 150 µg/mL (≈ 21.3 to 256 µM)
[1]
  MIC: < 1 µg/mL
[2]
  MIC: 3.5 to 12.5 µg/mL (≈ 5.97 to 21.3 µM)
E. coli LZ3111
  MIC: 12.5 to 150 µg/mL (≈ 21.3 to 256 µM)

## CCc1cc(C(=O)O)c(=O)[nH]c1-c1ccc2c(c1)cc(CN1CCN(C(C)=O)CC1)n2C [Cpd 144, 6-(2-((4-acetylpiperazin-1-yl)methyl)-1-methyl-1H-indol-5-yl)-5-ethyl-2-oxo-1,2-dihydropyridine-3-carboxylic acid]
E. coli 25922
  MIC: 3.5 to 12.5 µg/mL (≈ 8.02 to 28.6 µM)
[1]
  MIC: < 1 µg/mL
[2]
  MIC: 12.5 to 150 µg/mL (≈ 28.6 to 344 µM)
E. coli LZ3111
  MIC: 12.5 to 150 µg/mL (≈ 28.6 to 344 µM)

## CCc1cc(C(=O)O)c(=O)[nH]c1-c1ccc2c(c1)cc(CN(C)C(C)=O)n2C [Cpd 145, 5-ethyl-6-(1-methyl-2-((N-methylacetamido)methyl)-1H-indol-5-yl)-2-oxo-1,2-dihydropyridine-3-carboxylic acid]
E. coli 25922
  MIC: 3.5 to 12.5 µg/mL (≈ 9.18 to 32.8 µM)
[1]
  MIC: < 1 µg/mL
[2]
  MIC: 12.5 to 150 µg/mL (≈ 32.8 to 393 µM)
E. coli LZ3111
  MIC: 12.5 to 150 µg/mL (≈ 32.8 to 393 µM)

## CCc1cc(C(=O)O)c(=O)[nH]c1-c1ccc2c(c1)cc(CN1C[C@H]3CCC[C@@H](N(C)Cc4ccccc4)[C@H]3C1)n2C [Cpd 146, 6-(2-(((3aR,4R,7aS)-4-(benzyl(methyl)amino)-1H-isoindol-2(3H,3aH,4H,5H,6H,7H,7aH)-yl)methyl)-1-methyl-1H-indol-5-yl)-5-ethyl-2-oxo-1,2-dihydropyridine-3-carboxylic acid]
E. coli 25922
  MIC: 1 to 3.5 µg/mL (≈ 1.81 to 6.33 µM)
[1]
  MIC: < 1 µg/mL
[2]
  MIC: 12.5 to 150 µg/mL (≈ 22.6 to 271 µM)
E. coli LZ3111
  MIC: 12.5 to 150 µg/mL (≈ 22.6 to 271 µM)

## CCc1cc(C(=O)O)c(=O)[nH]c1-c1ccc2c(c1)cc(CN1C[C@H]3CC[C@@H](N(C)C)[C@H]3C1)n2C [Cpd 147, 6-(2-(((3aR,4R,6aS)-4-(dimethylamino)hexahydrocyclopenta[c]pyrrol-2(1H)-yl)methyl)-1-methyl-1H-indol-5-yl)-5-ethyl-2-oxo-1,2-dihydropyridine-3-carboxylic acid]
E. coli 25922
  MIC: < 1 µg/mL
[1]
  MIC: < 1 µg/mL
[2]
  MIC: 12.5 to 150 µg/mL (≈ 27 to 324 µM)
E. coli LZ3111
  MIC: 12.5 to 150 µg/mL (≈ 27 to 324 µM)

## CCc1cc(C(=O)O)c(=O)[nH]c1-c1ccc2c(c1)cc(CN1C[C@H]3CCC[C@@H](NC)[C@H]3C1)n2C [Cpd 148, 5-ethyl-6-(1-methyl-2-(((3aR,4R,7aS)-4-(methylamino)-1H-isoindol-2(3H,3aH,4H,5H,6H,7H,7aH)-yl)methyl)-1H-indol-5-yl)-2-oxo-1,2-dihydropyridine-3-carboxylic acid]
E. coli 25922
  MIC: 3.5 to 12.5 µg/mL (≈ 7.57 to 27 µM)
[1]
  MIC: 1 to 3.5 µg/mL (≈ 2.16 to 7.57 µM)
[2]
  MIC: 12.5 to 150 µg/mL (≈ 27 to 324 µM)
E. coli LZ3111
  MIC: 12.5 to 150 µg/mL (≈ 27 to 324 µM)

## CCc1cc(C(=O)O)c(=O)[nH]c1-c1ccc2c(c1)cc(CN1C[C@H]3CCC[C@@H](N(C)C)[C@H]3C1)n2C [Cpd 149, 6-(2-(((3aR,4R,7aS)-4-(dimethylamino)-1H-isoindol-2(3H,3aH,4H,5H,6H,7H,7aH)-yl)methyl)-1-methyl-1H-indol-5-yl)-5-ethyl-2-oxo-1,2-dihydropyridine-3-carboxylic acid]
E. coli 25922
  MIC: 1 to 3.5 µg/mL (≈ 2.1 to 7.34 µM)
[1]
  MIC: < 1 µg/mL
[2]
  MIC: 12.5 to 150 µg/mL (≈ 26.2 to 315 µM)
E. coli LZ3111
  MIC: 12.5 to 150 µg/mL (≈ 26.2 to 315 µM)

## CCc1cc(C(=O)O)c(=O)[nH]c1-c1ccc2c(c1)cc(CN)n2C [Cpd 150, 6-(2-(aminomethyl)-1-methyl-1H-indol-5-yl)-5-ethyl-2-oxo-1,2-dihydropyridine-3-carboxylic acid]
E. coli 25922
  MIC: 1 to 3.5 µg/mL (≈ 3.07 to 10.8 µM)
[1]
  MIC: < 1 µg/mL
[2]
  MIC: 12.5 to 150 µg/mL (≈ 38.4 to 461 µM)
E. coli LZ3111
  MIC: 12.5 to 150 µg/mL (≈ 38.4 to 461 µM)

## CCc1cc(C(=O)O)c(=O)[nH]c1-c1ccc2c(c1)cc1n2CCC1N1CCCC1 (stereo not drawn) [Cpd 151, 5-ethyl-2-oxo-6-(1-(pyrrolidin-1-yl)-2,3-dihydro-1H-pyrrolo[1,2-a]indol-7-yl)-1,2-dihydropyridine-3-carboxylic acid]
E. coli 25922
  MIC: 1 to 3.5 µg/mL (≈ 2.55 to 8.94 µM)
[1]
  MIC: < 1 µg/mL
[2]
  MIC: 12.5 to 150 µg/mL (≈ 31.9 to 383 µM)
E. coli LZ3111
  MIC: 12.5 to 150 µg/mL (≈ 31.9 to 383 µM)

## CCc1cc(C(=O)O)c(=O)[nH]c1-c1ccc2c(c1)cc1n2CCC1N1CCC(N(C)C)C1 (stereo not drawn) [Cpd 153, 6-(1-(3-(dimethylamino)pyrrolidin-1-yl)-2,3-dihydro-1H-pyrrolo[1,2-a]indol-7-yl)-5-ethyl-2-oxo-1,2-dihydropyridine-3-carboxylic acid]
E. coli 25922
  MIC: 3.5 to 12.5 µg/mL (≈ 8.05 to 28.8 µM)
[1]
  MIC: < 1 µg/mL
[2]
  MIC: 12.5 to 150 µg/mL (≈ 28.8 to 345 µM)
E. coli LZ3111
  MIC: 12.5 to 150 µg/mL (≈ 28.8 to 345 µM)

## CCc1cc(C(=O)O)c(=O)[nH]c1-c1ccc2c(c1)cc(C1CCNC1)n2C.Cl (stereo not drawn) [Cpd 156, 5-ethyl-6-(1-methyl-2-(pyrrolidin-3-yl)-1H-indol-5-yl)-2-oxo-1,2-dihydropyridine-3-carboxylic acid hydrochloride]
E. coli 25922
  MIC: 12.5 to 150 µg/mL
[1]
  MIC: 3.5 to 12.5 µg/mL
[2]
  MIC: 12.5 to 150 µg/mL
E. coli LZ3111
  MIC: 12.5 to 150 µg/mL

## CCc1cc(C(=O)O)c(=O)[nH]c1-c1ccc2c(c1)cc(C(C)N1CCCC1)n2C (stereo not drawn) [Cpd 157, 5-ethyl-6-(1-methyl-2-(1-(pyrrolidin-1-yl)ethyl)-1H-indol-5-yl)-2-oxo-1,2-dihydropyridine-3-carboxylic acid]
E. coli 25922
  MIC: 3.5 to 12.5 µg/mL (≈ 8.89 to 31.8 µM)
[1]
  MIC: < 1 µg/mL
[2]
  MIC: 12.5 to 150 µg/mL (≈ 31.8 to 381 µM)
E. coli LZ3111
  MIC: 12.5 to 150 µg/mL (≈ 31.8 to 381 µM)

From patent US9409905B2, “Antibacterial compounds and methods for use” (PTC THERAPEUTICS, INC., priority 2011, dated 2016)
